Test results as given in ChEMBL document CHEMBL1201862, “PubChem BioAssay data set” (2004).
Calls of active or inactive are those of the source.

Legend:
[1] = MITF Orthogonal Assay: SK-MEL-5 CTG Assay Measured in Cell-Based System Using Plate Reader - 2084-02_Inhibitor_Dose_DryPowder_Activity_Set7.; format: functional
[2] = MITF: Counter assay: A375 proliferation Measured in Cell-Based System Using Plate Reader - 2084-03_Inhibitor_Dose_DryPowder_Activity_Set8.; format: functional; settings: A-375
[3] = inhibitors of TRPM1-promoter reporter in SK-MEL-5 – cell-based, luciferase, dry powder, set 8, MITF inhibitor project, dose response (AID 624430); format: functional
[4] = viability of uninfected HEp-2 cells – cell-based, HTS, cytotoxicity control for RSV inhibitor project, dose response (AID 2410); format: functional; settings: human respiratory syncytial virus
[5] = viability of PTEN-deleted HCT116 cells – cell-based, HCT116 PTEN knockout, dose response (AID 1047); format: functional;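 note: HCT116 colon tumor cells with PTEN knocked out; cells exposed to compound for 60 hours before readout; potency for loss of cell viability measured by luminescence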
[6] = viability of HCT116 lacking mutant beta-catenin – cell-based, human colon tumor, dose response (AID 1045); format: functional;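 note: HCT116 colon tumor cells with beta catenin knocked out; cells exposed to compound for 60 hours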
[7] = Luminescence Cell-Based Dose Retest to Confirm Inhibitors of Cancer Stem Cells. [Related pubchem assays (depositor defined):AID2717, AID2721]; format: functional; settings: Homo sapiens
Nonstructural protein 1 = Nonstructural protein 1 (Influenza A virus, UniProt Q194T2); format: functional, Influenza A virus (A/California/07/2009(H1N1))
[8] = reduced cellular PGC1a acetyl-lysine signal – cell-based, cherry-picked samples, dose response (AID 720514); format: functional;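 note: potency may reflect raised or lowered acetylation signal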
Paired box protein Pax-8 = Paired box protein Pax-8 (Homo sapiens, UniProt Q06710); assay: PAX8 transcriptional activity inhibition in RMG-I – RMG-I cells, luciferase, cherry-pick, dose response (AID 687027); format: functional, cell-based;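 note: luciferase reporter driven by Pax8 target thyroperoxidase promoter measured by SteadyGlo luminescence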
[9] = toxicity toward immortalized ovarian surface epithelium – cell-based, plate reader, dry powder samples, cytotoxicity control for PAX8 inhibitor project, dose response (AID 743045); format: functional
[10] = A2780 cell killing – plate reader, dry powder samples, cytotoxicity control, dose response (AID 743046); format: functional, cell-based
[11] = OVCAR-3 cell viability loss – plate reader, dry powder samples, PAX8 inhibitor project, dose response (AID 743044); format: functional, cell-based
[12] = IGROV1 cell killing – plate reader, dry powder samples, PAX8 inhibitor project, dose response (AID 743043); format: functional, cell-based; settings: IGROV-1
[13] = OVCAR8 cell viability loss – plate reader, dry powder samples, PAX8 project, dose response (AID 743197); format: functional, cell-based; settings: OVCAR-8
[14] = cytotoxicity in MITF-independent A375 cells – cell-based, CellTiter-Glo luminescence, dry powder, set 4, counter-screen for MITF inhibitor project, dose response (AID 624364); format: functional; settings: A-375;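 note: A375 melanoma cells are MITF independent so this is a counter screen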
[15] = viability loss in MITF-independent A375 cells – cell-based, CellTiter-Glo luminescence, dry powder, set 2, counter-screen for MITF inhibitor project, dose response (AID 624489); format: functional; settings: A-375;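 note: actives are compounds lowering A375 viability meaning general cytotoxicity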
Fibrinogen beta chain [16] = target: T1, Fibrinogen beta chain (Homo sapiens, UniProt P02675); assay: Fluorescence polarization-based biochemical high throughput dose response assay to identify inhibitors that disrupt the binding of a cyclic peptide (Tn6) to the fibrin proteolytic product D-Dimer and fragment E complex [DD(E )].
Fibrinogen beta chain [17] = target: T1, Fibrinogen beta chain; assay: Fluorescence polarization-based biochemical high throughput dose response assay to identify inhibitors that disrupt the binding of a cyclic peptide (Tn7) to the fibrin proteolytic product D-Dimer and fragment E complex [DD(E )].
[18] = target: 1-phosphatidylinositol 4,5-bisphosphate phosphodiesterase gamma-1 (Homo sapiens, UniProt P19174); assay: Counterscreen for inhibitors of phospholipase C isozymes (PLC-B3): Fluorescence-based biochemical high throughput dose response assay to identify inhibitors of phospholipase C isozymes (PLC-gamma1).
[19] = target: 1-phosphatidylinositol 4,5-bisphosphate phosphodiesterase beta-3 (Homo sapiens, UniProt Q01970); assay: Fluorescence-based biochemical high throughput dose response assay to identify inhibitors of phospholipase C isozymes (PLC-B3).
[20] = potency of ADAM10 substrate cleavage blockers – biochemical, QFRET, dose response (AID 743254);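 note: ADAM10 enzyme with the DM2 quenched FRET peptide as substrate; EDANS fluorescence gain as the protease cuts the substrate; inhibitor potency against ADAM10 proteolytic activity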
[21] = target: T2, Disintegrin and metalloproteinase domain-containing protein 17 (Homo sapiens, UniProt P78536); assay: inhibition of ADAM17 substrate cleavage – biochemical, quenched FRET substrate, counter-screen for ADAM10 exosite inhibitor project, dose response (AID 743253)
Kallikrein-7 = Kallikrein-7 (Homo sapiens, UniProt P49862); assay: Fluorescence Intensity-based biochemical primary high throughput dose response assay to identify activators of kallikrein-7 (K7) zymogen.
[22] = viability loss in HepG2 liver cells – cell-based, ATP luminescence, cherry-pick, set 6, cytotoxicity control, dose response (AID 1053125); format: functional
cells [23] = settings: A549
cells [24] = assay: cells
cells [25] = settings: HEK293
H9c2 = assay: cells; format: functional, cell-based; settings: Rattus norvegicus, H9c2, Myocardium;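 note: confirmatory concentration-response retest of ultra-high-throughput screening hits for modulation of myocardial damage; cell death induced by hydrogen peroxide oxidative stress; compound pretreatment for 60 min then peroxide exposure for 2 h; potency is for protecting the cells against peroxide damage rather than for killing them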
[26] = target: Endoplasmic reticulum aminopeptidase 1 (Homo sapiens, UniProt Q9NZ08); assay: inhibition of human ERAP1 enzyme activity – biochemical, cherry-pick, set 2, plate reader, dose response (AID 743314)
[27] = target: T2, Disintegrin and metalloproteinase domain-containing protein 17; assay: exosite inhibitors of ADAM17, dose response, biochemical (AID 743260)
[28] = inhibition of ADAM10 peptide cleavage – biochemical, FRET peptide substrate, recombinant human ADAM10, selectivity assay for ADAM17 exosite inhibitor project, dose response (AID 743259);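 note: ADAM10 enzyme cleaving a FRET peptide substrate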
[29] = Luminescence-based cell-based high throughput dose response assay to identify activators of the DAF-12 from the parasite S. stercoralis (ssDAF-12).; format: functional
[30] = target: T3, Oxysterols receptor LXR-beta (Homo sapiens, UniProt P55055); assay: LXR agonists, Gal4 luciferase reporter, dose response, counter-screen for ssDAF-12 agonist project, cell-based, luminescence, HEK293, S. stercoralis campaign (AID 720737); format: functional; settings: read-out: IC50 (the source's name)
T3 sequence (P55055 whole entry): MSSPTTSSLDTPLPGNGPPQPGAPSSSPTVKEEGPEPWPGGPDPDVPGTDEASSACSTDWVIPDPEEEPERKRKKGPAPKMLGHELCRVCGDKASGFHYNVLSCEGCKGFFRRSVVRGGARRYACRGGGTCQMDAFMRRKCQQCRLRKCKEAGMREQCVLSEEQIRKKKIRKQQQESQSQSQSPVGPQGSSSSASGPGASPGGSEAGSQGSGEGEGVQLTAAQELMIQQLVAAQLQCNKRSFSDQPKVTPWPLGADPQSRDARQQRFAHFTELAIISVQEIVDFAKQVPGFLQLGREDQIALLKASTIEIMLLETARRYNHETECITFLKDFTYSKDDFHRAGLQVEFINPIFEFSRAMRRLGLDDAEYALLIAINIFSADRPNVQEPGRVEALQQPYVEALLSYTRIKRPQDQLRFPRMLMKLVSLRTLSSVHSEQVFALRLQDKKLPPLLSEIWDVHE

Caspase-6 = target: T4, Caspase-6 (Homo sapiens, UniProt P55212); assay: inhibition of CASP6 peptide cleavage – biochemical, VEID-R110 fluorescence, cherry-pick, dose response (AID 720632)
T4 sequence (P55212 whole entry): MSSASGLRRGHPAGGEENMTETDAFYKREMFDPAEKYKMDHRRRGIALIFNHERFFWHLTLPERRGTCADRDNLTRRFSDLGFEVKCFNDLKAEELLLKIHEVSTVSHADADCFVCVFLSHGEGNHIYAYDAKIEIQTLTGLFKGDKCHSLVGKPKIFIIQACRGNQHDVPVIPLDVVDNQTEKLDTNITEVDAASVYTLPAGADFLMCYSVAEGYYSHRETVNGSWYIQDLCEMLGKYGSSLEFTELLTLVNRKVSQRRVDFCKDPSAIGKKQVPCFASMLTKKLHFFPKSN

Caspase-9 = Caspase-9 (Homo sapiens, UniProt P55211); assay: inhibitors of purified CASP9 protease – biochemical, fluorescence, plate reader, cherry-picked samples, selectivity assay for caspase-6 inhibitor project, dose response (AID 743293)
Caspase-7 = target: T5, Caspase-7 (Homo sapiens, UniProt P55210); assay: caspase-7 enzyme inhibition, selectivity check – biochemical, DEVD-R110 fluorescence, cherry-pick, selectivity assay for caspase-6 inhibitor project, dose response (AID 743295); format: functional
T5 sequence (P55210 whole entry): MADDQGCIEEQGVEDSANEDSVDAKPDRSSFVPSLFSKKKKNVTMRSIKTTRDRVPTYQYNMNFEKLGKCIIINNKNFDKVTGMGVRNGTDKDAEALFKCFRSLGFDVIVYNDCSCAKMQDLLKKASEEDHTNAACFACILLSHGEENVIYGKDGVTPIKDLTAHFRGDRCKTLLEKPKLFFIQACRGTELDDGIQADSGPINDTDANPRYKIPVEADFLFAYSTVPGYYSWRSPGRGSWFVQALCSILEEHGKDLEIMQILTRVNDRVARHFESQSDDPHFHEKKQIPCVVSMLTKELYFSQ

[31] = viability of BHK-21 cells – cell-based, secondary screen, cytotoxicity control for flavivirus guanylyltransferase probe project (AID 624078); format: functional
[32] = target: NAD-dependent protein deacylase sirtuin-5, mitochondrial (Homo sapiens, UniProt Q9NXA8); assay: sirtuin-5 deacylation blockers, concentration series – biochemical, fluorescence imaging, cherry-pick, set 5, dose response (AID 720591);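 note: desuccinylation of succinyl peptide AMC substrate read as fluorescence after trypsin release; potency of inhibitors that lower fluorescence and may act on trypsin instead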
Protein skinhead-1 = target: T6, Protein skinhead-1 (Caenorhabditis elegans, UniProt P34707); format: functional
T6 sequence (P34707 whole entry): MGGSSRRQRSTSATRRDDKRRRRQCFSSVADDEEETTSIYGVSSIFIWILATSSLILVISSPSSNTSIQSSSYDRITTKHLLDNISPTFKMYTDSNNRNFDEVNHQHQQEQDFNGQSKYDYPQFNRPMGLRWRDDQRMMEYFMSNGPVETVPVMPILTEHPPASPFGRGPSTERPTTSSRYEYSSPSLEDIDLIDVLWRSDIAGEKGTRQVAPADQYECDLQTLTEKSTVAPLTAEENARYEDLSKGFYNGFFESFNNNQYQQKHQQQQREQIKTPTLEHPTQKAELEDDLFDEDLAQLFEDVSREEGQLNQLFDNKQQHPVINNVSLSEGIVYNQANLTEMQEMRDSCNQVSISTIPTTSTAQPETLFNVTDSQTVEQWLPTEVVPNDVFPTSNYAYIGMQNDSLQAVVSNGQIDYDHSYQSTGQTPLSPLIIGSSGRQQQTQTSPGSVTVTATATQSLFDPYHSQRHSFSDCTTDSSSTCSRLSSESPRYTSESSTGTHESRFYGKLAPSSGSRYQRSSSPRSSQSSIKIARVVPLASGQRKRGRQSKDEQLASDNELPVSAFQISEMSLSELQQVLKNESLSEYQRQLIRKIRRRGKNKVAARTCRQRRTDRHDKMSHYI

[33] = target: T3, Oxysterols receptor LXR-beta; format: functional, cell-based

T1 sequence (P02675 whole entry, the tested form may be a part): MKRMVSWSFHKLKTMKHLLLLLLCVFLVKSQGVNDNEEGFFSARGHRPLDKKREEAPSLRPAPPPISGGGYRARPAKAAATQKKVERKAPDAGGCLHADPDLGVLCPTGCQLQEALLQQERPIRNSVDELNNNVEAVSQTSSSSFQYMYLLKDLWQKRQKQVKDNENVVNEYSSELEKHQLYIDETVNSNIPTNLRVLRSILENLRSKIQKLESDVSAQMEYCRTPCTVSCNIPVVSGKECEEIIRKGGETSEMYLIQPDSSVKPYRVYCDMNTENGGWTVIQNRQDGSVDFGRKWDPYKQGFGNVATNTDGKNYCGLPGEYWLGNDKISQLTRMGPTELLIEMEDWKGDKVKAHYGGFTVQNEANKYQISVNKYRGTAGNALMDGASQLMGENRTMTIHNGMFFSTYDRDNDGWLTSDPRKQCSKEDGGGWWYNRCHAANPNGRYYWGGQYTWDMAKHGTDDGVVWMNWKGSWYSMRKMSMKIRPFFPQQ
T2 sequence (P78536 whole entry, the tested form may be a part): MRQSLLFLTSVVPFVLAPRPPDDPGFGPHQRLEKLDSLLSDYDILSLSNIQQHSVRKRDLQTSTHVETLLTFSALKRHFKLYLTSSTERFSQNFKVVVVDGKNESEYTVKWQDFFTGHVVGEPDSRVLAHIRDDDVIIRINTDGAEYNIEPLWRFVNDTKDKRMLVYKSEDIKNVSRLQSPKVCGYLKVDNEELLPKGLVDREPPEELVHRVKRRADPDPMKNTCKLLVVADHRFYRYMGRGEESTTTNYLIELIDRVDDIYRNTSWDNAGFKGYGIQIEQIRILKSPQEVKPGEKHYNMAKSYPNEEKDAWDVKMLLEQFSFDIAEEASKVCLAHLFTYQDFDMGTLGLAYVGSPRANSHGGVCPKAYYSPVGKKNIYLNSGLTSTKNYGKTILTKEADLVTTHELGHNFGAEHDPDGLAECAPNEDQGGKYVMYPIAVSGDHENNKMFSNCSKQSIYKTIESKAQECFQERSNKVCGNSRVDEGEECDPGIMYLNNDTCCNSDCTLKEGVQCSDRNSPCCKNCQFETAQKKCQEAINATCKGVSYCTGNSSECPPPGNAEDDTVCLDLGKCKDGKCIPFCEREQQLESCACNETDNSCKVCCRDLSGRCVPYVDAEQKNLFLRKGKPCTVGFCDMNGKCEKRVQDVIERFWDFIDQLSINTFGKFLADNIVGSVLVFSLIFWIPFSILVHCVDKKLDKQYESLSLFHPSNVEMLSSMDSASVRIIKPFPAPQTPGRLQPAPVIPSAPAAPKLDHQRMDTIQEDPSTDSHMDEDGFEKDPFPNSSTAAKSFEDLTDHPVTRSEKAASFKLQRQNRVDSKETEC
1-phosphatidylinositol 4,5-bisphosphate phosphodiesterase beta-3, sequence (Q01970 whole entry): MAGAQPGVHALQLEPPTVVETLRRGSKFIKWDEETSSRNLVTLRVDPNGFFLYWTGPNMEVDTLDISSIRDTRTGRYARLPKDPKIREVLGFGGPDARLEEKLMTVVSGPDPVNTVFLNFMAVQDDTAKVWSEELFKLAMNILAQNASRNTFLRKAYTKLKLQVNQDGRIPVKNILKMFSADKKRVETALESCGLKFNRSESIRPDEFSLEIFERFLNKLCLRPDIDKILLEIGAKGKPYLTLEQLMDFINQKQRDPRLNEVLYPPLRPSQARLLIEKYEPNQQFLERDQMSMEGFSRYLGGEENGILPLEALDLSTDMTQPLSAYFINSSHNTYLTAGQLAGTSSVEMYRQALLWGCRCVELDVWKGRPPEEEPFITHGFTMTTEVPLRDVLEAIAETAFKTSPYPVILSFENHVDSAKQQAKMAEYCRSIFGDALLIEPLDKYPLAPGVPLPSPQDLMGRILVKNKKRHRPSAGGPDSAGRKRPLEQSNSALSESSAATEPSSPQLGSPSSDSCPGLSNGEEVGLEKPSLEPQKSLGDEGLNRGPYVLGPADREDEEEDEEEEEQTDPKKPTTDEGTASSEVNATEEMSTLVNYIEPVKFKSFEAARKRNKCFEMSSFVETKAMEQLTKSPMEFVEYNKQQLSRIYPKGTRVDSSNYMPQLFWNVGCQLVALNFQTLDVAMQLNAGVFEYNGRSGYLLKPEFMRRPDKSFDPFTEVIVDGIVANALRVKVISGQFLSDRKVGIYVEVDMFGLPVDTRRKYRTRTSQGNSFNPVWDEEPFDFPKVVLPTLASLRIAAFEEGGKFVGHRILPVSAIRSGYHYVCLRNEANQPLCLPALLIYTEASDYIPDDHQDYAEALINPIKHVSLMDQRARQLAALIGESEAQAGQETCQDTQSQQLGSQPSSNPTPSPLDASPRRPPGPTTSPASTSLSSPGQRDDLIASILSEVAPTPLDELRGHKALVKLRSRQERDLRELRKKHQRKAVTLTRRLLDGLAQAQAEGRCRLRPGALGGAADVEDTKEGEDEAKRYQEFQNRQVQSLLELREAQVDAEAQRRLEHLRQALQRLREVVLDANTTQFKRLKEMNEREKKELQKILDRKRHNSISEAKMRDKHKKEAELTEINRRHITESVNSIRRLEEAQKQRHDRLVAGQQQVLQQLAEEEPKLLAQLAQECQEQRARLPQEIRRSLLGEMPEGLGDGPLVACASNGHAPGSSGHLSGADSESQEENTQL
NAD-dependent protein deacylase sirtuin-5, mitochondrial, sequence (Q9NXA8 whole entry): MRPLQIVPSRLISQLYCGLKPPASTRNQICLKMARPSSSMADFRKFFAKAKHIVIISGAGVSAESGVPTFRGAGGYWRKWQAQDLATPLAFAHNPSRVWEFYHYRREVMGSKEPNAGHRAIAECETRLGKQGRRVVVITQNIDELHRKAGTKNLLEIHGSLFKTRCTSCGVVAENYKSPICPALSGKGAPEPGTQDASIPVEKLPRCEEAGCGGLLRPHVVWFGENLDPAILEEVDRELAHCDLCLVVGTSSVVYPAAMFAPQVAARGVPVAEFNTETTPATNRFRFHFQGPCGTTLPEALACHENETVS
Nonstructural protein 1, sequence (Q194T2 whole entry): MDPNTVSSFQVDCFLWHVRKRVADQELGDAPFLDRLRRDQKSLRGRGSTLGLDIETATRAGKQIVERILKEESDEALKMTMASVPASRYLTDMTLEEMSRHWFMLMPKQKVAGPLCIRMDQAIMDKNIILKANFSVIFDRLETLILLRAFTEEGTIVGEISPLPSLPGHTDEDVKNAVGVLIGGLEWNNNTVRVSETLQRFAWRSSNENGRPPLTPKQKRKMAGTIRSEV
Caspase-9, sequence (P55211 1-315 limits assumed): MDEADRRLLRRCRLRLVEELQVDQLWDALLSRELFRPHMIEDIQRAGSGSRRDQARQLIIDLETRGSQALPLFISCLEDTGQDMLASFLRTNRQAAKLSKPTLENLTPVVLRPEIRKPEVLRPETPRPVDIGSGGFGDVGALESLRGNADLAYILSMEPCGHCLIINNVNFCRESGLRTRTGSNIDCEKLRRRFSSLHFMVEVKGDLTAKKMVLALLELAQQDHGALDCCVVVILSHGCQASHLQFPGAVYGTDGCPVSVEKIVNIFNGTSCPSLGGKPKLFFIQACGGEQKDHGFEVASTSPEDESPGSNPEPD
Caspase-9, sequence (P55211 331-416 limits assumed): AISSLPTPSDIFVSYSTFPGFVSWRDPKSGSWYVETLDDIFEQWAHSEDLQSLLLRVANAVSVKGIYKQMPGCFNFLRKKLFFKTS
Endoplasmic reticulum aminopeptidase 1, sequence (Q9NZ08 whole entry, the tested form may be a part): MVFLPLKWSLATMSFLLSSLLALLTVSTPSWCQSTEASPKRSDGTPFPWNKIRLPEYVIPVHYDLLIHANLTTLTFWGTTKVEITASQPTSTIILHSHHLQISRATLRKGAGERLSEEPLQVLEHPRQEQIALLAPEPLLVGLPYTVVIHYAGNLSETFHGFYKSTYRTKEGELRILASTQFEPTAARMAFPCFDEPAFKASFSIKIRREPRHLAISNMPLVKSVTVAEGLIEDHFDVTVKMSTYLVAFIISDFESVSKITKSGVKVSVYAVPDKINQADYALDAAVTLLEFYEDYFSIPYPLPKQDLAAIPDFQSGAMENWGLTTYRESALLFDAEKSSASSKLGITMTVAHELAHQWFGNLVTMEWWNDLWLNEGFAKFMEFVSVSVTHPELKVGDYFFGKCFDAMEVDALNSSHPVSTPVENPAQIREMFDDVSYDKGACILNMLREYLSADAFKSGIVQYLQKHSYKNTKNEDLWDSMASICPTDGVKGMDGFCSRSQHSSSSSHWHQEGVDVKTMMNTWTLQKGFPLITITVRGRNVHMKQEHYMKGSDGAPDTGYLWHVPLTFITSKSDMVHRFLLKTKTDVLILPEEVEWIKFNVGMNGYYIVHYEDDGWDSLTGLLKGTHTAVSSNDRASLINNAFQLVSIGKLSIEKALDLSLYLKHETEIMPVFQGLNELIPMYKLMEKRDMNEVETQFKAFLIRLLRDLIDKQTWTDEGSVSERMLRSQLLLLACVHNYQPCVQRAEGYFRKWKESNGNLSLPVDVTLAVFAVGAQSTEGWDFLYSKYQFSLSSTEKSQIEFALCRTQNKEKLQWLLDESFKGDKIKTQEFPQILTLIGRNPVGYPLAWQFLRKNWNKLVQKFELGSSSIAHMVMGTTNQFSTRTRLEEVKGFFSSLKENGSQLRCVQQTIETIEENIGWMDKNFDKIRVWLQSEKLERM
Paired box protein Pax-8, sequence (Q06710 whole entry): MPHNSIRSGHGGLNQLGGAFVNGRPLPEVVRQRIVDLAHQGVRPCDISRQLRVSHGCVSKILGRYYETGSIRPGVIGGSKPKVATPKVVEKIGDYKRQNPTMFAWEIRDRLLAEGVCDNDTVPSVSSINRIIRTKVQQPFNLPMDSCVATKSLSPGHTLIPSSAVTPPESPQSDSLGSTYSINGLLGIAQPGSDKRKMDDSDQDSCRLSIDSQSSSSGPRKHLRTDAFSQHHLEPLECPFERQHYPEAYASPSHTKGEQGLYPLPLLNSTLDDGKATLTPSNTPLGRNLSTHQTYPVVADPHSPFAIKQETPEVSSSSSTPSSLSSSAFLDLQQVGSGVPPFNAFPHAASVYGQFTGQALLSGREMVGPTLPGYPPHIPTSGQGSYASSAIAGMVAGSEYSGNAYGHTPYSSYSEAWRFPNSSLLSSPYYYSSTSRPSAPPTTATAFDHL

With `CN1CCN(C2=C(Nc3cccc(Br)c3)C(=O)c3ccccc3C2=O)CC1` the AC50 [1] was 12.3 µM (active), the AC50 [2] was 39.3 µM (active) and the AC50 [3] was 4.79 µM (active).
For `CCCOc1ccccc1-n1sc2c(c1=S)-c1cc(OC)cc3c1N(C(=O)C3=O)C2(C)C`, the CC50 [4] was 21.4 µM (active), the EC50 [5] was 19.9 µM (active) and the EC50 [6] was 22 µM (active). For the same compound, the AC50 [7] was 5.35 µM (active), the IC50 (Nonstructural protein 1) was 9.35 µM (active) and the AC50 [8] was 19.4 µM (active).
For `CS(=O)(=O)Nc1ccc2c(c1)[C@@H]1C[C@@H](CC(=O)NCc3ccc(Oc4ccccc4)cc3)O[C@@H](CO)[C@@H]1O2`, the AC50 (Paired box protein Pax-8) was 1.95 µM (active), the AC50 [9] was 8.81 µM (active) and the AC50 [10] was 6.31 µM (active). For the same compound, the AC50 [11] was 3.38 µM (active), the AC50 [12] was 6.7 µM (active) and the AC50 [13] was 11.3 µM (active).
For `O=C1C(NS(=O)(=O)c2ccc(Br)cc2)=C(N2CCOCC2)C(=O)c2ccccc21`, the AC50 [14] was > 70 µM (inactive) and the AC50 [15] was > 70 µM (inactive).
In the case of `O=C(CSc1nnc(SCc2cccc3ccccc23)s1)Nc1ccc(S(=O)(=O)Nc2nccs2)cc1`, the IC50 (Fibrinogen beta chain [16]) is reported as 15.6 µM (inactive) and the IC50 (Fibrinogen beta chain [17]) is reported as > 83.3 µM (inactive).
For `Cc1cc(OCC(=O)OCC(=O)NCc2ccc3c(c2)OCO3)ccc1Cl`, the IC50 [18] was > 123 µM (inactive) and the IC50 [19] was > 123 µM (inactive).
For `CC(O)(c1ccc(F)c(F)c1)c1nc(-c2cc3ccccc3o2)cs1` (stereo unspecified), the IC50 [20] was 10.5 µM (inactive) and the IC50 [21] was > 69.5 µM (inactive).
For `COc1ccc(/C=N/NC(=O)c2cc3c(ccc4ccccc43)o2)cc1OC`, the EC50 (Kallikrein-7) was > 23.2 µM (inactive).
In the case of `CCOc1ccc2nc(NCCN=C(S)NCCCN(C)C)c(C#N)cc2c1`, the AC50 [22] is reported as > 52 µM (inactive), the AC50 (cells [23]) is reported as > 52 µM (inactive) and the AC50 (cells [24]) is reported as > 32 µM (inactive). The AC50 (cells [25]) was > 52 µM (inactive).
In the case of `CCCCc1cc(=O)oc2cc(O)ccc12`, the IC50 (H9c2) is reported as > 79 µM (inactive) and the AC50 [26] is reported as 7.25 µM (active).
With `NS(=O)(=O)c1ccc(NCc2cc(Cl)ccc2OCc2ccc(F)cc2)cc1` the IC50 [27] was > 69.5 µM (inactive) and the IC50 [28] was > 23.2 µM (inactive).
With `C=CCc1ccc(OCCCCOc2ccc(C(=O)O)cc2)c(OC)c1` the IC50 [29] was > 67.5 µM (inactive) and the EC50 [30] was > 67.5 µM (inactive).
In the case of `O=C(C[C@@H]1C[C@H]2c3cc(NC(=O)NC4CCCCC4)ccc3O[C@H]2[C@H](CO)O1)NCc1ccccn1`, the AC50 (Caspase-6) is reported as 7.79 µM (active), the AC50 (Caspase-9) is reported as 53.5 µM (active) and the AC50 (Caspase-7) is reported as 29.7 µM (active).
With `O=S(=O)(Nc1cc(Sc2ccccc2)c(O)c2ccccc12)c1ccc(F)cc1` the CC50 [31] was 13.4 µM (active).
In the case of `O=C(O)c1ccc(S(=O)(=O)N(Cc2ccccc2)C2CCCCC2)cc1`, the AC50 [32] is reported as > 30 µM (inactive).
In the case of `Cc1cc2nn(-c3ccc(F)cc3)nc2cc1N`, the IC50 (Protein skinhead-1) is reported as > 100 µM (inactive) and the EC50 [33] is reported as > 67.5 µM (inactive).
